Laboratory results: the supplement of paper PMC10307832

How the values were obtained:
Assay in all cases: relative viability (nuclei count vs DMSO), 5 days (fraction); higher = more cells survive
PAC-1 + Luminespib = compound: C=CCc1cccc(/C=N/NC(=O)CN2CCN(Cc3ccccc3)CC2)c1O [PAC-1] + CCNC(=O)c1noc(-c2cc(C(C)C)c(O)cc2O)c1-c1ccc(CN2CCOCC2)cc1 [Luminespib] (partner 0.01 µM)
Method in brief: (§1)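 Lung cancer cell lines were pin-tool dosed in 1536-well plates on the day after seeding, with either a lone drug or a fixed anchor-drug dose plus five library-drug doses (not always all listed) in √10 steps. Nuclei were counted on 4× images after 5 days. Relative viability is the ratio of treated-well to vehicle-well nuclei counts, with each value a median of duplicate plates.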

Ibrutinib + Linsitinib = compound: C=CC(=O)N1CCC[C@@H](n2nc(-c3ccc(Oc4ccccc4)cc3)c3c(N)ncnc32)C1 [Ibrutinib] + C[C@]1(O)C[C@@H](c2nc(-c3ccc4ccc(-c5ccccc5)nc4c3)c3c(N)nccn32)C1 [Linsitinib] (partner 1 µM)
Method in brief: as §1

BMX-IN-1 + Palbociclib = compound: C=CC(=O)Nc1cc(-n2c(=O)ccc3cnc4ccc(-c5ccc(NS(C)(=O)=O)cc5)cc4c32)ccc1C [BMX-IN-1] + CC(=O)c1c(C)c2cnc(Nc3ccc(N4CCNCC4)cn3)nc2n(C2CCCC2)c1=O [Palbociclib] (partner 0.5 µM)
Method in brief: as §1

Ibrutinib + Lapatinib = compound: C=CC(=O)N1CCC[C@@H](n2nc(-c3ccc(Oc4ccccc4)cc3)c3c(N)ncnc32)C1 [Ibrutinib] + CS(=O)(=O)CCNCc1ccc(-c2ccc3ncnc(Nc4ccc(OCc5cccc(F)c5)c(Cl)c4)c3c2)o1 [Lapatinib] (partner 2 µM)
Method in brief: as §1

Cell Line: SK-MES-1
- relative viability (PAC-1 + Luminespib; first compound 0.02 µM): 0.723
- relative viability (PAC-1 + Luminespib; first compound 0.06325 µM): 0.805
- relative viability (PAC-1 + Luminespib; first compound 0.2 µM): 0.726
- relative viability (PAC-1 + Luminespib; first compound 2 µM): 0.56
- relative viability (Ibrutinib + Linsitinib; first compound 0.005 µM): 1.06
- relative viability (Ibrutinib + Linsitinib; first compound 0.01581 µM): 0.937
- relative viability (Ibrutinib + Linsitinib; first compound 0.05 µM): 1.11
- relative viability (Ibrutinib + Linsitinib; first compound 0.1581 µM): 1.06
- relative viability (Ibrutinib + Linsitinib; first compound 0.5 µM): 0.447
- relative viability (BMX-IN-1 + Palbociclib; first compound 0.02 µM): 0.303
- relative viability (BMX-IN-1 + Palbociclib; first compound 0.2 µM): 0.333
- relative viability (BMX-IN-1 + Palbociclib; first compound 0.6325 µM): 0.355
- relative viability (BMX-IN-1 + Palbociclib; first compound 2 µM): 0.271
- relative viability (Ibrutinib + Lapatinib; first compound 0.005 µM): 0.506
- relative viability (Ibrutinib + Lapatinib; first compound 0.01581 µM): 0.456
- relative viability (Ibrutinib + Lapatinib; first compound 0.05 µM): 0.461
- relative viability (Ibrutinib + Lapatinib; first compound 0.1581 µM): 0.446
- relative viability (Ibrutinib + Lapatinib; first compound 0.5 µM): 0.441
